Source: patent US5488051A, “Substituted 5,6-dihydro-5-oxo-1,4-dithiino-(2,3-d)-pyridazine-2,3-dicarbonitriles, compositions containing them and their use as antimicrobials” (The Dow Chemical Company, priority 1994, dated 1996)
Values after ≈ are worked out from the molar mass of the structure shown. Like-named read-outs stand apart in the source and are kept apart here.

Legend:
Bacillus subtilis (Bs) = assay: MIC for Bacillus subtilis, nutrient agar; type: cell-based, Bacillus subtilis ATCC 8473; details: 30° C., 48 hours, read-out: Minimum Inhibitory Concentration (MIC), Bs
Protocol: (§1) The minimum inhibitory concentration (MIC) for the compounds listed in Table I is determined for 9 bacteria, using nutrient agar; and 7 yeast and fungi, using malt yeast agar. A one percent solution of the test compound is prepared in a mixture of acetone and water.
(§2) Nutrient agar is prepared at pH 6.8, representing a neutral medium, and at pH 8.2, representing an alkaline medium. The nutrient agars are prepared by adding 23 g of nutrient agar to one-liter of deionized water. In addition, the alkaline medium is prepared by adjusting a 0.04M solution of N-[tris-(hydroxymethyl)methyl]-glycine buffered deionized water with concentrated sodium hydroxide to a pH of 8.5.
(§3) The test tubes containing the malt yeast agar and the nutrient agar are cooled in a water bath until the temperature of the agar is 48° C. Then, an appropriate amount of the one percent solution of the test compound is added (except in the controls where no compound is added) to the respective test tubes so that the final concentrations are zero (0), 1.0, 2.5, 5, 10, 25, 50, 100, 250 and 500 parts per million of the test compound in each of the respective type of agar. The contents of each of the test tubes are then transferred to separate petri plates. After drying for 24 hours, the petri plates containing nutrient agar are inoculated with bacteria and those containing malt yeast agar are inoculated with yeast and fungi.
(§4) The inoculation with bacteria is accomplished by using the following procedure. Twenty-four hour-cultures of each of the bacteria are prepared by incubating the respective bacteria in tubes containing nutrient broth for 24 hours at 30° C. in a shaker. Dilutions of each of the 24 hour-cultures are made so that nine separate suspensions (one for each of the nine test bacteria) are made, each containing 10^8 colony forming units (CFU) per mL of suspension of a particular bacteria. Aliquots of 0.3 mL of each of the bacterial suspensions are used to fill the individual wells of Steer's Replicator. For each microbial suspension, 0.3 mL was used to fill three wells (i.e., three wells of 0.3 mL each) so that for the nine different bacteria, 27 wells are filled. The Steer's Replicator is then used to inoculate both the neutral and alkaline pH nutrient agar petri plates.
(§5) The inoculated petri plates are incubated at 30° C. for 48 hours and then read to determine if the test compound which is incorporated into the agar prevented growth of the respective bacteria.
(§6) Table II list the bacteria, yeast and fungi used in the MIC test described above along with their respective American Type Culture Collection (ATCC) identification numbers.

[1] = system: Enterobacter aerogenes (Ea); assay: MIC for Enterobacter aerogenes, nutrient agar; type: cell-based, Enterobacter aerogenes ATCC 13048; details: Klebsiella aerogenes, nutrient agar, 30° C., 48 hours, read-out: Minimum Inhibitory Concentration (MIC), Ea
Protocol: as §1, §2, §3, §4, §5, §6

Escherichia coli (Ec) = assay: MIC for Escherichia coli, nutrient agar; type: cell-based, Escherichia coli ATCC 11229; details: 30° C., 48 hours, read-out: Minimum Inhibitory Concentration (MIC), Ec
Protocol: as §1, §2, §3, §4, §5, §6

[2] = system: Klebsiella pneumonias (Kp); assay: MIC for Klebsiella pneumonias, nutrient agar; type: cell-based, Klebsiella pneumonias ATCC 8308; details: 30° C., 48 hours, read-out: Minimum Inhibitory Concentration (MIC), Kp
Protocol: as §1, §2, §3, §4, §5, §6

Proteus vulgaris (Pv) = assay: MIC for Proteus vulgaris, nutrient agar; type: cell-based, Proteus vulgaris ATCC 881; details: 30° C., 48 hours, read-out: Minimum Inhibitory Concentration (MIC), Pv
Protocol: as §1, §2, §3, §4, §5, §6

[3] = system: Pseudomonas aeruginosa (PRD-10); assay: MIC for Pseudomonas aeruginosa PRD-10, nutrient agar; type: cell-based, Pseudomonas aeruginosa ATCC 15442; details: 30° C., 48 hours, read-out: Minimum Inhibitory Concentration (MIC), PRD
Protocol: as §1, §2, §3, §4, §5, §6

[4] = system: Pseudomonas aeruginosa (Pa); assay: MIC for Pseudomonas aeruginosa, nutrient agar; type: cell-based, Pseudomonas aeruginosa ATCC 10145; details: 48 hours, read-out: Minimum Inhibitory Concentration (MIC), Pa
Protocol: as §1, §2, §3, §4, §5, §6

Salmonella choleraesuis = assay: MIC for Salmonella choleraesuis, nutrient agar; type: cell-based, Salmonella choleraesuis ATCC 10708; details: Salmonella enterica, 30° C., 48 hours, read-out: Minimum Inhibitory Concentration (MIC), SC
Protocol: as §1, §2, §3, §4, §5, §6

[5] = system: Staphylococcus aureus (Sa); assay: MIC for Staphylococcus aureus, nutrient agar; type: cell-based, Staphylococcus aureus ATCC 6538; details: 30° C., 48 hours, read-out: Minimum Inhibitory Concentration (MIC), Sa
Protocol: as §1, §2, §3, §4, §5, §6

Aspergillus niger (An) = assay: MIC for Aspergillus niger, malt yeast agar; type: cell-based, Aspergillus niger ATCC 16404; details: malt yeast agar; 30° C., 72 hours for fungi; read-out: Minimum Inhibitory Concentration (MIC), An
Protocol: as §1
(§7) Malt yeast agar is prepared by adding 3 g yeast extract and 45 g malt agar per liter of deionized water. The specific agar is dispensed in 30 mL aliquots into 25×200 mm test tubes, capped and autoclaved for 15 minutes at 115° C.
as §3
(§8) The inoculation with the yeast and fungi is accomplished as follows. Cultures of yeast and fungi are incubated for seven days on malt yeast agar at 30° C. These cultures are used to prepare suspensions by the following procedure. A suspension of each organism is prepared by adding 10 mL of sterile saline and 10 microliters of octylphenoxy polyethoxy ethanol to the agar slant of yeast or fungi. The sterile saline/octylphenoxy polyethoxy ethanol solution is then agitated with a sterile swab to suspend the microorganism grown on the slant. Each resulting suspension is diluted into sterile saline (1 part suspension: 9 parts sterile saline). Aliquots of these dilutions are placed in individual wells of Steer's Replicator and petri plates inoculated as previously described. The petri plates are incubated at 30° C. and read after 48 hours for yeast and 72 hours for fungi.
as §6

Candida albicans (Ca) = assay: MIC for Candida albicans, malt yeast agar; type: cell-based, Candida albicans ATCC 10231; details: malt yeast agar; 30° C., 48 hours for yeast; read-out: Minimum Inhibitory Concentration (MIC), Ca
Protocol: as §1, §7, §3, §8, §6

[6] = system: Penicillium chrysogenum (Pc); assay: MIC for Penicillium chrysogenum, malt yeast agar; type: cell-based, Penicillium chrysogenum ATCC 9480; details: malt yeast agar; 30° C., 72 hours for fungi; read-out: Minimum Inhibitory Concentration (MIC), PC
Protocol: as §1, §7, §3, §8, §6

Saccharomyces cerevisiae = assay: MIC for Saccharomyces cerevisiae, malt yeast agar; type: cell-based, Saccharomyces cerevisiae ATCC 4105; details: malt yeast agar, 30° C., 48 hours for yeast, read-out: Minimum Inhibitory Concentration (MIC), Sc
Protocol: as §1, §7, §3, §8, §6

Trichoderma viride (Tv) = assay: MIC for Trichoderma viride, malt yeast agar; type: cell-based, Trichoderma viride ATCC 8678; details: malt yeast agar; 30° C., 72 hours for fungi; read-out: Minimum Inhibitory Concentration (MIC), Tv
Protocol: as §1, §7, §3, §8, §6

[7] = system: Aureobasidium pullulan (Ap); assay: MIC for Aureobasidium pullulan, malt yeast agar; type: cell-based, Aureobasidium pullulan ATCC 16622; details: malt yeast agar; 30° C.; 48 hours for yeast and 72 hours for fungi; read-out: Minimum Inhibitory Concentration (MIC), Ap
Protocol: as §1, §7, §3, §8, §6

Fusarium oxysporum (Fo) = assay: MIC for Fusarium oxysporum, malt yeast agar; type: cell-based, Fusarium oxysporum ATCC 48112; details: malt yeast agar; 30° C., 72 hours for fungi; read-out: Minimum Inhibitory Concentration (MIC), Fo
Protocol: as §1, §7, §3, §8, §6

Compound	MIC (Bacillus subtilis (Bs); pH 6.8, nutrient agar)	MIC (Bacillus subtilis (Bs); pH 8.2, nutrient agar)	MIC ([1]; pH 6.8)	MIC ([1]; pH 8.2)	MIC (Escherichia coli (Ec); pH 6.8, nutrient agar)	MIC (Escherichia coli (Ec); pH 8.2, nutrient agar)	MIC ([2]; pH 6.8, nutrient agar)	MIC ([2]; pH 8.2, nutrient agar)	MIC (Proteus vulgaris (Pv); pH 6.8, nutrient agar)	MIC (Proteus vulgaris (Pv); pH 8.2, nutrient agar)	MIC ([3]; pH 6.8, nutrient agar)	MIC ([3]; pH 8.2, nutrient agar)	MIC ([4]; pH 6.8, 30° C.)	MIC ([4]; pH 8.2, 30° C.)	MIC (Salmonella choleraesuis; pH 6.8, nutrient agar)	MIC (Salmonella choleraesuis; pH 8.2, nutrient agar)	MIC ([5]; pH 6.8, nutrient agar)	MIC ([5]; pH 8.2, nutrient agar)	MIC (Aspergillus niger (An))	MIC (Candida albicans (Ca))	other results
N#CC1=C(C#N)Sc2c(cnn(-c3ccccc3)c2=O)S1 [A, 5,6-Dihydro-5-oxo-6-phenyl-1,4-dithiino(2,3-d)pyridazine-2,3-dicarbonitrile]	50 µg/mL (≈ 161 µM)	500 µg/mL (≈ 1610 µM)	250 µg/mL (≈ 806 µM)	> 500 µg/mL	50 µg/mL (≈ 161 µM)	> 500 µg/mL	50 µg/mL (≈ 161 µM)	> 500 µg/mL	50 µg/mL (≈ 161 µM)	> 500 µg/mL	500 µg/mL (≈ 1610 µM)	> 500 µg/mL	250 µg/mL (≈ 806 µM)	> 500 µg/mL	100 µg/mL (≈ 322 µM)	> 500 µg/mL	25 µg/mL (≈ 80.6 µM)	< 10 µg/mL	25 µg/mL (≈ 80.6 µM)	25 µg/mL (≈ 80.6 µM)	MIC [6]: 25 µg/mL (≈ 80.6 µM); MIC (Saccharomyces cerevisiae): < 10 µg/mL; MIC (Trichoderma viride (Tv)): 25 µg/mL (≈ 80.6 µM); MIC [7]: 25 µg/mL (≈ 80.6 µM); MIC (Fusarium oxysporum (Fo)): 25 µg/mL (≈ 80.6 µM)
N#CC1=C(C#N)Sc2c(cnn(-c3ccc(Cl)cc3)c2=O)S1 [D, 5,6-dihydro-6-(4-chlorophenyl)-5-oxo-1,4-dithiino-(2,3-d)-pyridazine-2,3-dicarbonitrile]	25 µg/mL (≈ 72.5 µM)	250 µg/mL (≈ 725 µM)	> 500 µg/mL	> 500 µg/mL	100 µg/mL (≈ 290 µM)	> 500 µg/mL	> 500 µg/mL	> 500 µg/mL	100 µg/mL (≈ 290 µM)	> 500 µg/mL	500 µg/mL (≈ 1450 µM)	> 500 µg/mL	> 500 µg/mL	> 500 µg/mL	100 µg/mL (≈ 290 µM)	> 500 µg/mL	> 500 µg/mL	> 500 µg/mL	10 µg/mL (≈ 29 µM)	10 µg/mL (≈ 29 µM)	MIC [6]: 25 µg/mL (≈ 72.5 µM); MIC (Saccharomyces cerevisiae): 10 µg/mL (≈ 29 µM); MIC (Trichoderma viride (Tv)): 25 µg/mL (≈ 72.5 µM); MIC [7]: 10 µg/mL (≈ 29 µM); MIC (Fusarium oxysporum (Fo)): 10 µg/mL (≈ 29 µM)
